ChEMBL document CHEMBL1275466, “Diversity of penicillin binding proteins among clinical Streptococcus pneumoniae strains from Portugal” (2008)
Converted amounts (≈) assume the structure as drawn.

Columns and labels:
Format in all cases: functional
Streptococcus pneumoniae [1] = experiment: Antibacterial activity against Streptococcus pneumoniae R6
Streptococcus pneumoniae [2] = experiment: Antibacterial activity against Streptococcus pneumoniae serotype 4 ATCC BAA-334 harboring mutant PBP1A
Streptococcus pneumoniae [3] = experiment: Antibacterial activity against Streptococcus pneumoniae serotype 9V URA4929 harboring mutant PBP1A
Streptococcus pneumoniae [4] = experiment: Antibacterial activity against tetracycline- erythromycin- clindamycin-resistant Streptococcus pneumoniae serotype 6B URA4376 harboring mutant PBP1A
Streptococcus pneumoniae [5] = experiment: Antibacterial activity against Streptococcus pneumoniae serotype 3 URA3537 harboring mutant PBP1A
Streptococcus pneumoniae [6] = experiment: Antibacterial activity against Streptococcus pneumoniae URA2543 harboring mutant PBP1A
Streptococcus pneumoniae [7] = experiment: Antibacterial activity against erythromycin-resistant Streptococcus pneumoniae serotype 14 URA4933 harboring mutant PBP2X and PBP1A
Streptococcus pneumoniae [8] = experiment: Antibacterial activity against multidrug resistant Streptococcus pneumoniae serotype 23 URA3558 harboring mutant PBP2X and PBP1A
Streptococcus pneumoniae [9] = experiment: Antibacterial activity against Streptococcus pneumoniae serotype 19F URA4087 harboring mutant PBP2X and PBP1A
Streptococcus pneumoniae [10] = experiment: Antibacterial activity against multidrug resistant Streptococcus pneumoniae serotype 6B URA4566 harboring mutant PBP2B PBP2X and PBP1A
Streptococcus pneumoniae [11] = experiment: Antibacterial activity against Streptococcus pneumoniae serotype 22 URA2542 harboring PBP2B harboring mutant PBP2B PBP2X and PBP1A
Streptococcus pneumoniae [12] = experiment: Antibacterial activity against penicillin-resistant Streptococcus pneumoniae serotype 19A URA3635 harboring mutant PBP2B PBP2X and PBP1A
Streptococcus pneumoniae [13] = experiment: Antibacterial activity against penicillin-resistant Streptococcus pneumoniae serotype 14 URA4731 harboring mutant PBP2B PBP2X and PBP1A
Streptococcus pneumoniae [14] = experiment: Antibacterial activity against penicillin-resistant Streptococcus pneumoniae serotype 23F URA5391 harboring mutant PBP2B PBP2X and PBP1A
Streptococcus pneumoniae [15] = experiment: Antibacterial activity against multidrug resistant Streptococcus pneumoniae serotype 15A URA5779 harboring mutant PBP2B PBP2X and PBP1A
Streptococcus pneumoniae [16] = experiment: Antibacterial activity against multidrug resistant Streptococcus pneumoniae serotype 6B ATCC 700670 harboring mutant PBP2B PBP2X and PBP1A
Streptococcus pneumoniae [17] = experiment: Antibacterial activity against multidrug resistant Streptococcus pneumoniae serotype 19A ATCC 700673 harboring mutant PBP2B PBP2X and PBP1A
Streptococcus pneumoniae [18] = experiment: Antibacterial activity against multidrug resistant Streptococcus pneumoniae serotype 19A URA5805 harboring mutant PBP2B PBP2X and PBP1A
Streptococcus pneumoniae [19] = experiment: Antibacterial activity against multidrug resistant Streptococcus pneumoniae serotype 23F ATCC 51916 harboring mutant PBP2B PBP2X and PBP1A
Streptococcus pneumoniae [20] = experiment: Antibacterial activity against penicillin-cefotaxime- ceftriaxone-resistant Streptococcus pneumoniae serotype 14 URA3543 harboring mutant PBP2B PBP2X and PBP1A
Streptococcus pneumoniae [21] = experiment: Antibacterial activity against penicillin-cefotaxime- ceftriaxone-resistant Streptococcus pneumoniae URA6056 harboring mutant PBP2B PBP2X and PBP1A
Streptococcus pneumoniae [22] = experiment: Antibacterial activity against penicillin-cefotaxime- ceftriaxone-resistant Streptococcus pneumoniae serotype 14 URA3043 harboring mutant PBP2B PBP2X and PBP1A
Streptococcus pneumoniae [23] = experiment: Antibacterial activity against multidrug resistant Streptococcus pneumoniae serotype 14 URA4203 harboring mutant PBP2B PBP2X and PBP1A
Streptococcus pneumoniae [24] = experiment: Antibacterial activity against penicillin-resistant Streptococcus pneumoniae serotype 14 URA5128 harboring mutant PBP2B PBP2X and PBP1A
Streptococcus pneumoniae [25] = experiment: Antibacterial activity against multidrug resistant Streptococcus pneumoniae serotype 19F URA3699 harboring mutant PBP2B PBP2X and PBP1A
Streptococcus pneumoniae [26] = experiment: Antibacterial activity against multidrug resistant Streptococcus pneumoniae serotype 24F URA5450 harboring mutant PBP2B PBP2X and PBP1A

## CC1(C)S[C@@H]2[C@H](NC(=O)Cc3ccccc3)C(=O)N2[C@H]1C(=O)O [PENICILLIN G]
Streptococcus pneumoniae [1]
  MIC: 0.0125 mg/L (≈ 0.0374 µM)
Streptococcus pneumoniae [2]
  MIC: 0.0125 mg/L (≈ 0.0374 µM)
Streptococcus pneumoniae [3]
  MIC: 0.0125 mg/L (≈ 0.0374 µM)
Streptococcus pneumoniae [4]
  MIC: 0.0125 mg/L (≈ 0.0374 µM)
Streptococcus pneumoniae [5]
  MIC: 0.0125 mg/L (≈ 0.0374 µM)
Streptococcus pneumoniae [6]
  MIC: 0.025 mg/L (≈ 0.0748 µM)
Streptococcus pneumoniae [7]
  MIC: 0.0125 mg/L (≈ 0.0374 µM)
Streptococcus pneumoniae [8]
  MIC: 0.2 mg/L (≈ 0.598 µM)
Streptococcus pneumoniae [9]
  MIC: 0.025 mg/L (≈ 0.0748 µM)
Streptococcus pneumoniae [10]
  MIC: 0.1 mg/L (≈ 0.299 µM)
Streptococcus pneumoniae [11]
  MIC: 0.05 mg/L (≈ 0.15 µM)
Streptococcus pneumoniae [12]
  MIC: 0.1 mg/L (≈ 0.299 µM)
Streptococcus pneumoniae [13]
  MIC: 0.1 mg/L (≈ 0.299 µM)
Streptococcus pneumoniae [14]
  MIC: 0.1 mg/L (≈ 0.299 µM)
Streptococcus pneumoniae [15]
  MIC: 0.1 mg/L (≈ 0.299 µM)
Streptococcus pneumoniae [16]
  MIC: 2 mg/L (≈ 5.98 µM)
Streptococcus pneumoniae [17]
  MIC: 2 mg/L (≈ 5.98 µM)
Streptococcus pneumoniae [18]
  MIC: 1.6 mg/L (≈ 4.78 µM)
Streptococcus pneumoniae [19]
  MIC: 0.1 mg/L (≈ 0.299 µM)
Streptococcus pneumoniae [20]
  MIC: 2 mg/L (≈ 5.98 µM)
Streptococcus pneumoniae [21]
  MIC: 3.2 mg/L (≈ 9.57 µM)
Streptococcus pneumoniae [22]
  MIC: 2 mg/L (≈ 5.98 µM)
Streptococcus pneumoniae [23]
  MIC: 1.6 mg/L (≈ 4.78 µM)
Streptococcus pneumoniae [24]
  MIC: 0.5 mg/L (≈ 1.5 µM)
Streptococcus pneumoniae [25]
  MIC: 0.5 mg/L (≈ 1.5 µM)
Streptococcus pneumoniae [26]
  MIC: 0.5 mg/L (≈ 1.5 µM)
